# Square brackets hold non-standard residues; d marks the D form. Peptide text beside a SMILES is read from it. * marks the point of attachment. NHPhenethyl = c1ccc(CCN*)cc1; NMeM = CN[C@@H](CCSC)C(=O)O; NMeV = CN[C@H](C(=O)O)C(C)C
# Assays:
# Trypanosoma cruzi = assay: Antiparasitic activity against Trypanosoma cruzi Tulahuen C4 trypomastigotes infected in rat L6 cells after 96 hrs by CPRG/Nonidet reagent based photometric analysis; format: functional, organism-based; settings: Tulahuen C4, L6, 96 h
# [1] = system: Trypanosoma brucei rhodesiense; assay: Antitrypanosomal activity against Trypanosoma brucei rhodesiense STIB900 bloodstream forms after 72 hrs by Alamar blue staining-based fluorometric analysis; format: functional, organism-based; settings: STIB900, 72 h
# Leishmania donovani = assay: Antileishmanial activity against Leishmania donovani MHOM/ET/67/L82 axenic amastigotes after 72 hrs by alamar blue staining based fluorescence assay; format: functional, organism-based; settings: MHOM/ET/67/L82, 72 h
# L6 = assay: Cytotoxicity against rat L6 cells assessed as reduction in cell viability after 72 hrs by Alamar blue staining-based fluorometric analysis; settings: L6, 72 h
# Plasmodium falciparum = assay: Antiplasmodial activity against Plasmodium falciparum NF54 erythrocytic stage assessed as reduction in [3H]hypoxanthine incorporation preincubated for 48 hrs followed by [3H]hypoxanthine addition and measured after 24 hrs by liquid scintillation counting method; format: functional, organism-based
Structure (SMILES),IC50 (Trypanosoma cruzi) [µM],IC50 [1] [µM],IC50 (Leishmania donovani) [µM],IC50 (L6) [µM],IC50 (Plasmodium falciparum) [µM]
CN[C@H](C(=O)N[C@H](C(=O)N(C)[C@H](C(=O)N(C)[C@@H](CCSC)C(=O)NCCc1ccccc1)C(C)C)C(C)C)C(C)C (H-[NMeV]V[NMeV][NMeM]-NHPhenethyl),75,12.3,> 100,> 100,10.9
CSCC[C@@H](C(=O)N(C)[C@H](C(=O)N(C)[C@H](C(=O)N(C)[C@H](C(=O)NCCc1ccccc1)C(C)C)C(C)C)C(C)C)N(C)C(=O)[C@@H](N)C(C)C (H-V[NMeM][NMeV][NMeV][NMeV]-NHPhenethyl),12.6,2.7,92.3,23.9,2.3
COc1cc([C@@H]2c3cc4c(cc3[C@H](O)[C@H]3COC(=O)[C@H]23)OCO4)cc(OC)c1OC [PODOFILOX],,,,0.01,
CSCC[C@@H](C(=O)N(C)[C@H](C(=O)N(C)[C@H](C(=O)NCCc1ccccc1)C(C)C)C(C)C)N(C)C(=O)[C@@H](N)C(C)C (H-V[NMeM][NMeV][NMeV]-NHPhenethyl),62.9,8.5,> 100,75.2,7.9
O=C(Cn1ccnc1[N+](=O)[O-])NCc1ccccc1 [BENZNIDAZOLE],2.8,,,,
CN[C@H](C(=O)N[C@H](C(=O)N(C)[C@@H](CCSC)C(=O)N(C)[C@H](C(=O)N(C)[C@H](C(=O)NCCc1ccccc1)C(C)C)C(C)C)C(C)C)C(C)C (H-[NMeV]V[NMeM][NMeV][NMeV]-NHPhenethyl),25.4,5.7,> 100,31.3,4.1
CN[C@H](C(=O)N[C@H](C(=O)N(C)[C@H](C(=O)N(C)[C@H](C(=O)N(C)[C@@H](CCSC)C(=O)NCCc1ccccc1)C(C)C)C(C)C)C(C)C)C(C)C (H-[NMeV]V[NMeV][NMeV][NMeM]-NHPhenethyl),53,4.3,> 100,71.2,6.6
CSCC[C@@H](C(=O)N[C@H](C(=O)N(C)[C@H](C(=O)N(C)[C@H](C(=O)NCCc1ccccc1)C(C)C)C(C)C)C(C)C)N(C)C(=O)[C@@H](N)C(C)C (H-V[NMeM]V[NMeV][NMeV]-NHPhenethyl),14.2,7.3,18.8,70.8,3.2
CN[C@H](C(=O)N[C@H](C(=O)N(C)[C@H](C(=O)N(C)[C@H](C(=O)N(C)[C@H](C(=O)NCCc1ccccc1)C(C)C)C(C)C)C(C)C)C(C)C)C(C)C (H-[NMeV]V[NMeV][NMeV][NMeV]-NHPhenethyl),26.2,1.4,> 100,56.2,4.6
CN[C@H](C(=O)N[C@H](C(=O)N(C)[C@H](C(=O)N(C)[C@H](C(=O)NCCc1ccccc1)C(C)C)C(C)C)C(C)C)C(C)C (H-[NMeV]V[NMeV][NMeV]-NHPhenethyl),69.4,10.5,> 100,89.1,5.3

# — ChEMBL document CHEMBL4411264, “Methionine-Containing Rhabdopeptide/Xenortide-like Peptides from Heterologous Expression of the Biosynthetic Gene Cluster kj12ABC in Escherichia coli” (J Nat Prod, 2018)
